IC50 data for nine molecules are collected here from patent US20150218173A1, “SUBSTITUTED INDAZOL-PYRROLOPYRIMIDINES USEFUL IN THE TREATMENT OF HYPERFOLIFERATIVE DISORDERS” (BAYER PHARMA AKTIENGESELLSCHAFT, priority 2012, published 2015).

pIC50: −log10 of the molar value.

T1 sequence (Q9BUB5 1-424 isoform Q9BUB5-2 T344D): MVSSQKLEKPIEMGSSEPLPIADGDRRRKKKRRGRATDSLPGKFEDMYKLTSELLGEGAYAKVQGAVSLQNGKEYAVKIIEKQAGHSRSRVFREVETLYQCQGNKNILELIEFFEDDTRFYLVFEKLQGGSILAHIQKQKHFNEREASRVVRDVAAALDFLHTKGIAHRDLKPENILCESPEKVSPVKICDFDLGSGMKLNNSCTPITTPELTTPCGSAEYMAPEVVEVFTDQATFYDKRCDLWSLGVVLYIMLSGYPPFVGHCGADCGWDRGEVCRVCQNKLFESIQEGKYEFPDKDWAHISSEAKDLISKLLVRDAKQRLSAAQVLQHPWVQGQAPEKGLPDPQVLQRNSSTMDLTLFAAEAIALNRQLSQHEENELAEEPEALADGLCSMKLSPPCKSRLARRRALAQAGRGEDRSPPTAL

The assay addresses T1, human full-length MKNK1 (Homo sapiens, UniProt Q9BUB5, T385D).
T1 construct: GST (N); purchased Carna Biosciences 02-145; host or cells: insect cells (baculovirus expression system)
Briefly: MKNK1 kinase high ATP assay (TR-FRET). In kind it is biochemical. Particulars: high ATP (2 mM final), 15 min preincubation with enzyme. The procedure:
MKNK1-inhibitory activity at high ATP of compounds of the present invention after their preincubation with MKNK1 was quantified employing the TR-FRET-based MKNK1 high ATP assay as described in the following paragraphs.
A recombinant fusion protein of Glutathione-S-Transferase (GST, N-terminally) and human full-length MKNK1 (amino acids 1-424 and T344D of accession number BAA 19885.1), expressed in insect cells using baculovirus expression system and purified via glutathione sepharose affinity chromatography, was purchased from Carna Biosciences (product no 02-145) and used as enzyme. As substrate for the kinase reaction the biotinylated peptide biotin-Ahx-IKKRKLTRRKSLKG (C-terminus in amide form) was used, which can be purchased e.g. from the company Biosyntan (Berlin-Buch, Germany).
For the assay 50 nL of a 100 fold concentrated solution of the test compound in DMSO was pipetted into a black low volume 384 well microtiter plate (Greiner Bio-One, Frickenhausen, Germany), 2 μL of a solution of MKNK1 in aqueous assay buffer [50 mM HEPES pH 7.5, 5 mM MgCl2, 1.0 mM dithiothreitol, 0.005% (v/v) Nonidet-P40 (Sigma)] was added and the mixture was incubated for 15 min at 22° C. to allow pre-binding of the test compounds to the enzyme before the start of the kinase reaction. Then the kinase reaction was started by the addition of 3 μL of a solution of adenosine-tri-phosphate (ATP, 3.3 mM=>final conc. in the 5 μL assay volume is 2 mM) and substrate (0.1 μM=>final conc. in the 5 μL assay volume is 0.06 μM) in assay buffer and the resulting mixture was incubated for a reaction time of 30 min at 22° C. The concentration of MKNK1 was adjusted depending of the activity of the enzyme lot and was chosen appropriate to have the assay in the linear range, typical concentrations were in the range of 0.003 μg/mL. The reaction was stopped by the addition of 5 μL of a solution of TR-FRET detection reagents (5 nM streptavidine-XL665 [Cisbio Bioassays, Codolet, France] and 1 nM anti-ribosomal protein S6 (pSer236)-antibody from Invitrogen [#44921G] and 1 nM LANCE EU-W1024 labeled ProteinG [Perkin-Elmer, product no. AD0071]) in an aqueous EDTA-solution (100 mM EDTA, 0.1% (w/v) bovine serum albumin in 50 mM HEPES pH 7.5).
The resulting mixture was incubated for 1 h at 22° C. to allow the formation of complex between the phosphorylated biotinylated peptide and the detection reagents. Subsequently the amount of phosphorylated substrate was evaluated by measurement of the resonance energy transfer from the Eu-chelate to the streptavidine-XL. Therefore, the fluorescence emissions at 620 nm and 665 nm after excitation at 350 nm were measured in a TR-FRET reader, e.g. a Rubystar (BMG Labtechnologies, Offenburg, Germany) or a Viewlux (Perkin-Elmer). The ratio of the emissions at 665 nm and at […] was taken as the measure for the amount of phosphorylated substrate. The data were normalised (enzyme reaction without inhibitor=0% inhibition, all other assay components but no enzyme=100% inhibition).
In general terms: TR-FRET usually uses a lanthanide donor and a delayed reading to cut background.
The pIC50 is −log10 of the IC50, conventionally taken in molar units. A higher pIC50 goes with a low IC50. `CCc1c[nH]c2ncnc(Nc3ccc4[nH]ncc4c3)c12` [Example 40, 5-Ethyl-N-(1H-indazol-5-yl)-7H-pyrrolo[2,3-d]pyrimidin-4-amine] showed a pIC50 of 7.54.

`c1cc(-c2c[nH]c3ncnc(Nc4ccc5[nH]ncc5c4)c23)ccn1` [Example 14, N-(1H-Indazol-5-yl)-5-(pyridin-4-yl)-7H-pyrrolo[2,3-d]pyrimidin-4-amine]: the pIC50 was 8.22.

The molecule `O=C(NC1CCOCC1)c1cc2c(Nc3ccc4[nH]ncc4c3)ncnc2[nH]1` [Example 25, 4-(1H-Indazol-5-ylamino)-N-(tetrahydro-2H-pyran-4-yl)-7H-pyrrolo[2,3-d]pyrimidine-6-carboxamide] gave a pIC50 of 8.10.

On to `CC(C)c1cc2c(Nc3ccc4[nH]ncc4c3)ncnc2[nH]1` [Example 19, N-(1H-Indazol-5-yl)-6-(propan-2-yl)-7H-pyrrolo[2,3-d]pyrimidin-4-amine], for which the pIC50 was 7.41.

Molecule `CCOC(=O)c1cc2c(Nc3ccc4[nH]ncc4c3)ncnc2[nH]1` [Example 4, Ethyl 4-(1H-indazol-5-ylamino)-7H-pyrrolo[2,3-d]pyrimidine-6-carboxylate] had a pIC50 of 7.60.

In turn, `C=Cc1cc2c(Nc3ccc4[nH]ncc4c3)ncnc2[nH]1` [Example 9, 6-Ethenyl-N-(1H-indazol-5-yl)-7H-pyrrolo[2,3-d]pyrimidin-4-amine] gave a pIC50 of 8.15.

`C(=C\c1cc2c(Nc3ccc4[nH]ncc4c3)ncnc2[nH]1)/c1ccccc1` [Example 10, N-(1H-Indazol-5-yl)-6-[(E)-2-phenylethenyl]-7H-pyrrolo[2,3-d]pyrimidin-4-amine] had a pIC50 of 8.22.

`Cc1c[nH]c2ncnc(Nc3ccc4[nH]ncc4c3)c12` [Example 18, N-(1H-Indazol-5-yl)-5-methyl-7H-pyrrolo[2,3-d]pyrimidin-4-amine] had a pIC50 of 7.66.

As for `O=C(O)c1[nH]c2ncnc(Nc3ccc4[nH]ncc4c3)c2c1Br` [Example 31, 5-Bromo-4-(1H-indazol-5-ylamino)-7H-pyrrolo[2,3-d]pyrimidine-6-carboxylic acid], the pIC50 was 8.30.
